As usually defined, the half-life is how long it takes for the measured level to halve. High values mean slow decline, low ones rapid decline. A word on the EC50: it is the midpoint of the concentration-response curve.

The nature of data set [1]: Dipeptide half life on IGF1 (p-NH2-F)A19 analogs in PBS. The data set is classed as physicochemical. As to conditions: buffer. How it is done:
Accordingly, the IGF1A chain alone was determined to be a good model for the study of pro-drug half life on IGF1 B:A (Y^B16L^B17) analog peptides. […] For simplicity, prodrug half lives were determined using only the IGF1 A chain in the absence of the B chain. The half lives of each propeptide was determined as described in Example 5.

Data set [2] deals with T1, IGF-1 receptor (Homo sapiens, UniProt P08069). Kind of data set: IGF-1 receptor binding assay (competition, scintillation proximity). Details: expressed in transfected cells; plasma membrane fragments. As to conditions: Table 9. For orientation: SPA uses beads or plates that emit light when radiolabelled molecules are held near them.
T1 sequence (P08069 31-736 limits assumed): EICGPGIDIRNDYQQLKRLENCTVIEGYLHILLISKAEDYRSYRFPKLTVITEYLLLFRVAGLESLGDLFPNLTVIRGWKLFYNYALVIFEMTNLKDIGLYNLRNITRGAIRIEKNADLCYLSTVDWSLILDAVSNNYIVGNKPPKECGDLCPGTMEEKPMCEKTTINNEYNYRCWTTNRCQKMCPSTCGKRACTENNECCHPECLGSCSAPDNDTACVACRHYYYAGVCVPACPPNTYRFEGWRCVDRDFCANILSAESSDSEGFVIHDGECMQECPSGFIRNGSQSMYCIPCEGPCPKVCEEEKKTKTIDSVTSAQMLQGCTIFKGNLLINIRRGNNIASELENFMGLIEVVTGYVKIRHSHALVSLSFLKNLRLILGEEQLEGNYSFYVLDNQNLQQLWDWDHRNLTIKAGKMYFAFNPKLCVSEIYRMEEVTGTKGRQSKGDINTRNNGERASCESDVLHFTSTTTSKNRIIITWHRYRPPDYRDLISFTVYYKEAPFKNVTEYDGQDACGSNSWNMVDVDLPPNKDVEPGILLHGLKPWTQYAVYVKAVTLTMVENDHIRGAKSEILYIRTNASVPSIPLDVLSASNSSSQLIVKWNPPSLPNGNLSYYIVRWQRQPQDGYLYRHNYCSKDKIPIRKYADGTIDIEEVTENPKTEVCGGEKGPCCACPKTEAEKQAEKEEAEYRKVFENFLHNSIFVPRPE
T1 sequence (P08069 741-1367 partner limits assumed): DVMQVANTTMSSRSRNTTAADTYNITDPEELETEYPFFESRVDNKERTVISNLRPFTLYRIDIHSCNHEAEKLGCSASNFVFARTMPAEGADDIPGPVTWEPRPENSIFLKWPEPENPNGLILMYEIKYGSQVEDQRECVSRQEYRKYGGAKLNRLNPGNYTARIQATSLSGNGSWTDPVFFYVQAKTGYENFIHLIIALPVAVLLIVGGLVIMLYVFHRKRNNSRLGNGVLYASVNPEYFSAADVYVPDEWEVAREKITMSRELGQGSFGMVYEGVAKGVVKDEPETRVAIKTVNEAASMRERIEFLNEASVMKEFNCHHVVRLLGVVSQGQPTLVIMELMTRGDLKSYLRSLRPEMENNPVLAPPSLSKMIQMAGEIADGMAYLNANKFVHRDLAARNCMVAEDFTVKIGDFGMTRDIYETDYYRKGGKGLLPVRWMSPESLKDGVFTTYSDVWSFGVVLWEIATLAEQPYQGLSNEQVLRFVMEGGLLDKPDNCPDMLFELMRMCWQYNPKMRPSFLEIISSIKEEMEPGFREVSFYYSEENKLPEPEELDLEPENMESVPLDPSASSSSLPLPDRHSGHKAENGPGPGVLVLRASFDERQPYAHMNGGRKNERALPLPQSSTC
A further data set has as its target insulin receptor (Homo sapiens, UniProt P06213). Kind of data set: Insulin receptor binding assay (competition, scintillation proximity). Details: expressed in transfected cells; plasma membrane fragments.
The target in data set [3] is T1, IGF-1 receptor. Put plainly: IGF-1 receptor phosphorylation assay, receptor transfected HEK293 cells. In kind it is cell-based. Details: expressed in transfected cells; host or cells: HEK293. As to conditions: Table 10. How it is done:
Color development was stopped 5 min later by adding 0.05 ml 1 N HCl. Absorbance at 450 nm was measured on Titertek Multiscan MCC340 (ThermoFisher, Pittsburgh, Pa.).

Where a SMILES comes first, the peptide text is derived from it. Side-chain parts run from the residue outwards. [ ]: non-standard residue; d: D form. The star is where a group is joined. Phe(4-NH2) = Nc1ccc(C[C@H](N)C(=O)O)cc1; Isobutyryl(2-OH) = CC(C)(O)C(=O)*; Sar = CNCC(=O)O

Chain of insulin receptor (P06213 28-758 limits assumed): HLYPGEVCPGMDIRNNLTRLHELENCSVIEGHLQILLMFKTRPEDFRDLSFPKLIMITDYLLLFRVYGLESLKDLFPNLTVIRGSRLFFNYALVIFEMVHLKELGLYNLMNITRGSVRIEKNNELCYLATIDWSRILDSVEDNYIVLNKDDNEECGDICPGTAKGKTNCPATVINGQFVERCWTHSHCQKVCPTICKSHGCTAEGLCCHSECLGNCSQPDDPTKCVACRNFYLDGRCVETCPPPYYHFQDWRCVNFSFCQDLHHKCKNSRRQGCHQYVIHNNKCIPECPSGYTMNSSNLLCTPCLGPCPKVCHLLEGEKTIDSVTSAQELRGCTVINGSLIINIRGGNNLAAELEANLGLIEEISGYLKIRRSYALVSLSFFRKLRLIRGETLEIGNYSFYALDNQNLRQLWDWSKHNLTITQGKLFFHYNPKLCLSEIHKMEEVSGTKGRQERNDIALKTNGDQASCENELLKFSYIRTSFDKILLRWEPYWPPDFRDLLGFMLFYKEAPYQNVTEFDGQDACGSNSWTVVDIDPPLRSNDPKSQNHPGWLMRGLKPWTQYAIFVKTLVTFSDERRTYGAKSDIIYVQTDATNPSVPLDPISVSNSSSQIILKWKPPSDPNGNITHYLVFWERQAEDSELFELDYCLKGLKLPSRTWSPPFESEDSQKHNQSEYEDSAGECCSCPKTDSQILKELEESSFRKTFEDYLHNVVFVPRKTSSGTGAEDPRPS
Chain of insulin receptor (P06213 763-1382 partner limits assumed): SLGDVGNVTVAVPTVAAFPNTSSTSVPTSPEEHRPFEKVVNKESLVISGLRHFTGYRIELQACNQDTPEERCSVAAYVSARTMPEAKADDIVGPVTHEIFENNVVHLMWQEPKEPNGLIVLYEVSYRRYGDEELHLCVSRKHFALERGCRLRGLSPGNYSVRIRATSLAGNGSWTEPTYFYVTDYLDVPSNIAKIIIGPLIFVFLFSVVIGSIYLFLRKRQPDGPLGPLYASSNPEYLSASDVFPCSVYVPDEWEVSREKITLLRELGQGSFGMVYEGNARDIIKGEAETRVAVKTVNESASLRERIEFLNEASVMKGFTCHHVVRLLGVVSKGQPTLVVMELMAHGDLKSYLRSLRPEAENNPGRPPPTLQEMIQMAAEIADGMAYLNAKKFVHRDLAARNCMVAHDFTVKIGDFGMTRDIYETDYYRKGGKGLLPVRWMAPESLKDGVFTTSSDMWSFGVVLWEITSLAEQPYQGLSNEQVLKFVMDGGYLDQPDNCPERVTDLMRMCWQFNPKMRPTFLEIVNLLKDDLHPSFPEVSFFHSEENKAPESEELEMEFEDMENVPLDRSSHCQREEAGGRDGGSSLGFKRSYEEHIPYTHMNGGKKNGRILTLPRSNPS

Consider `CC[C@H](C)[C@H](NC(=O)CN)C(=O)N[C@H](C(=O)N[C@@H](CC(=O)O)C(=O)N[C@@H](CCC(=O)O)C(=O)N[C@@H](C)C(=O)N[C@@H](C)C(=O)N[C@@H](Cc1ccccc1)C(=O)N[C@@H](CCCNC(=N)N)C(=O)N[C@@H](CO)C(=O)N[C@@H](C)C(=O)N[C@@H](CC(=O)O)C(=O)N[C@@H](CC(C)C)C(=O)N[C@@H](CCCNC(=N)N)C(=O)N[C@@H](CCCNC(=N)N)C(=O)N[C@@H](CC(C)C)C(=O)N[C@@H](CCC(=O)O)C(=O)N[C@@H](CCSC)C(=O)N[C@@H](Cc1ccc(NC(=O)[C@@H]2CCCN2C(=O)C(C)(C)O)cc1)C(=O)N[C@@H](C)C(=O)N[C@@H](C)C(N)=O)C(C)C` [AiBOH Pro] (H-GIVDEAAFRSADLRRLEM[Phe(4-NH2)]([Pro-Isobutyryl(2-OH)])AA-NH2; N-terminus assumed), for which the half-life in data set [1] (Half Life (hr)) and in data set [1] (Half Life (hr) PBS) was 165 h in each case.
Take `CC[C@H](C)[C@H](NC(=O)CN)C(=O)N[C@H](C(=O)N[C@@H](CC(=O)O)C(=O)N[C@@H](CCC(=O)O)C(=O)N[C@@H](C)C(=O)N[C@@H](C)C(=O)N[C@@H](Cc1ccccc1)C(=O)N[C@@H](CCCNC(=N)N)C(=O)N[C@@H](CO)C(=O)N[C@@H](C)C(=O)N[C@@H](CC(=O)O)C(=O)N[C@@H](CC(C)C)C(=O)N[C@@H](CCCNC(=N)N)C(=O)N[C@@H](CCCNC(=N)N)C(=O)N[C@@H](CC(C)C)C(=O)N[C@@H](CCC(=O)O)C(=O)N[C@@H](CCSC)C(=O)N[C@@H](Cc1ccc(NC(=O)CN(C)C(=O)C(C)(C)O)cc1)C(=O)N[C@@H](C)C(=O)N[C@@H](C)C(N)=O)C(C)C` [AiBOH Sar] (H-GIVDEAAFRSADLRRLEM[Phe(4-NH2)]([Sar-Isobutyryl(2-OH)])AA-NH2; N-terminus assumed): the half-life in data set [1] (Half Life (hr)) and in data set [1] (Half Life (hr) PBS) was 2.3 h in each case.
For `CC[C@H](C)[C@H](NC(=O)CN)C(=O)N[C@H](C(=O)N[C@@H](CC(=O)O)C(=O)N[C@@H](CCC(=O)O)C(=O)N[C@H]1CSSC[C@@H]2NC(=O)[C@H](CO)NC(=O)[C@H](CCCNC(=N)N)NC(=O)[C@H](Cc3ccccc3)NC(=O)[C@H](CSSC[C@H](NC(=O)[C@H](CC(C)C)NC(=O)[C@H](Cc3c[nH]cn3)NC(=O)[C@H](CCC(=O)O)NC(=O)[C@@H]3CCCN3C(=O)CN)C(=O)NCC(=O)N[C@@H](C)C(=O)N[C@@H](CC(=O)O)C(=O)N[C@@H](CC(C)C)C(=O)N[C@@H](C(C)C)C(=O)N[C@@H](CC(=O)O)C(=O)N[C@@H](C)C(=O)N[C@@H](CC(C)C)C(=O)N[C@@H](Cc3ccc(O)cc3)C(=O)N[C@@H](CC(C)C)C(=O)N[C@@H](C(C)C)C(=O)N[C@H](C(=O)NCC(=O)N[C@@H](CC(=O)O)C(=O)N[C@@H](CCCNC(=N)N)C(=O)NCC(=O)N[C@@H](Cc3ccccc3)C(=O)N[C@@H](Cc3ccc(O)cc3)C(N)=O)CSSC[C@@H](C(=O)N[C@@H](C)C(N)=O)NC(=O)[C@H](Cc3ccc(O)cc3)NC(=O)[C@H](CCSC)NC(=O)[C@H](CCC(=O)O)NC(=O)[C@H](CC(C)C)NC(=O)[C@H](CCCNC(=N)N)NC(=O)[C@H](CCCNC(=N)N)NC(=O)[C@H](CC(C)C)NC(=O)[C@H](CC(=O)O)NC2=O)NC1=O)C(C)C` [IGF-1 A:B (H5D10Y16L17) DPI], at IGF-1 receptor [2], the “IGF-1 Receptor % IGF-1 (in test)” value is reported as 11.2%. The Ratio at insulin receptor (IGF-1 receptor IC50 over insulin receptor IC50) came to 29.1. Moreover, at insulin receptor (Table 9), the “Insulin Receptor % insulin (in test)” value came out at 479.0%. Besides, the “IGF-1 Receptor % IGF” value on IGF-1 receptor [3] amounted to 7.1%. The EC50 on IGF-1 receptor [3] (total phosphorylation) worked out at 12.2 nM.

Source of the values: patent publication US9573987B2 (priority 2011, dated 2017).
